This test has as its target T1, CLOCK PAS–A (murine CLOCK PAS-A domain, mCLOCK) (Mus musculus, UniProt O08785).
T1 sequence (O08785 103-265): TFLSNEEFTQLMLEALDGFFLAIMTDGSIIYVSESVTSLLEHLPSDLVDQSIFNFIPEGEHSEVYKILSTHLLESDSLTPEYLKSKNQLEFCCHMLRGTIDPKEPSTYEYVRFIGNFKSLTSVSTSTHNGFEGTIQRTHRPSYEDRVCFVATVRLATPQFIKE
The test is described as follows: UV-visible spectrophotometric titration, global nonlinear least squares fit. Format: binding.

Molecules are shown by their SMILES.

In general, Kd refers to the concentration at which binding is half-saturated. In turn, `C=CC1=C(C)C2=Cc3c(C=C)c(C)c4[n]3[Fe]([Cl])[n]3c(c(C)c(CCC(=O)O)c3=CC3=NC(=C4)C(C)=C3CCC(=O)O)=CC1=N2` [hemin] came in with a Kd of 1050 nM.
